Results reported in patent US7550509B2, “Carisoprodol articles and methods” (Mutual Pharmaceutical Company, Inc., priority 2006, dated 2009).
Read-outs that look alike come from different tables or passages of the source.

Key:
[1] = cited from earlier work
[2] = Biostudy of carisoprodol (SOMA®) pharmacokinetics under non-fasted and fasted conditions, randomized single-dose two-way crossover; type: in vivo, human (healthy adults); details: for AUC(0-inf) / AUC(0-t) / Tmax / Cmax: plasma; for AUC(0-inf): read-out: AUC0-INF, geometric mean (ln-transformed); for AUC(0-t): read-out: AUC0-t, geometric mean (ln-transformed); for Tmax: read-out: Tmax, least sq. mean (non-transformed); for Cmax: single dose SOMA®, 22 subjects, read-out: Cmax, geometric mean (ln-transformed)
Experimental: A biostudy was conducted under fasted and non-fasted conditions.
The dosage form is administered with 240 ml of water during the fasting period, and water can be allowed ad libitum after 2 hours.
As used herein, for the purposes of biostudy and the determination of bioequivalence, a non-fasted patient is defined as a patient who fasts for at least 10 hours overnight and then consumes an entire test meal within 30 minutes of first ingestion. The dosage form is administered with 240 mL of water at 30 minutes after first ingestion of the meal. No food is then allowed for at least 4 hours post-dose. Water can be allowed ad libitum after 2 hours. A high fat test meal provides approximately 1000 calories to the patient of which approximately 50% of the caloric content is derived from fat content of the meal. A representative high fat high calorie test meal comprises 2 eggs fried in butter, 2 strips of bacon, 2 slices of toast with butter, 4 ounces of hash brown potatoes, and 8 ounces of whole milk to provide 150 protein calories, 250 carbohydrate calories, and 500 to 600 fat calories.
The study was designed as a randomized, single-dose two-way crossover to compare the pharmacokinetic parameters of SOMA®. Twenty-four healthy adults participated in this comparison study and 22 of the subjects completed the study. Subjects received two separate drug administration treatments in assigned periods, one treatment per period, according to the randomization schedule. Dosing days were separated by a washout period of at least seven days. Blood samples were drawn prior to dosing (pre-dose) and at 0.33, 0.67, 1, 1.5, 2, 2.5, 3, 3.5, 4, 5, 6, 7, 8, 10, 12, 18, and 24 hours post-dose. The samples were then analyzed for carisoprodol and meprobamate.
The following pharmacokinetic parameters may be determined from the plasma concentration data:
The area under the plasma concentration versus time curve [AUCt] may be calculated using the linear trapezoidal rule from the zero time point to the last measured concentration.
The area under the plasma concentration versus time curve from zero to infinity [AUC0-INF] may be calculated by adding Ct/Kelm to AUC where Ct is the last measured concentration and Kelm is the elimination rate constant.
The maximum observed plasma concentration [Cmax] may be obtained by inspection. The Cmax may also be designated as CMAX.
The time to maximum plasma concentration [Tmax] may be obtained by inspection. If the same maximum plasma concentration occurs at more than one time point, the first may be chosen as Tmax.
The terminal elimination rate constant [Kelm] may be obtained from the slope of the line, fitted by linear least squares regression, through the terminal points of the 1n(base e) of the concentration versus time plot for these points.
The half-life [T1/2] may be calculated by the equation T1/2=0.693/Kelm.

[3] = carisoprodol, non-fasted compared to fasted
[4] = carisoprodol, non-fasted vs fasted
[5] = human, oral, carisoprodol in plasma, fasted
[6] = human, oral, carisoprodol in plasma, non-fasted

CCCC(C)(COC(N)=O)COC(=O)NC(C)C (stereo not drawn) [carisoprodol, N-isopropyl-2-methyl-2-propyl-1,3-propanediol dicarbamate]
solubility in organic solvents (in words) ([1]; alcohol, chloroform, and acetone): freely soluble | solubility in water ([1]; between 25 to 50° C.): 300 to 1400 µg/mL | solubility in water (in words) ([1]; water): very sparingly soluble | T½, least sq. mean ([2]; carisoprodol in plasma, fasted): 1.95 h | kelm (elimination rate constant), least sq. mean ([2]; carisoprodol in plasma, fasted): 0.376 | kelm (elimination rate constant), least sq. mean ([2]; carisoprodol in plasma, non-fasted): 0.3713 | decrease in the geometric mean of Cmax in the presence of food [2, 3]: 16% | effect of food on AUC (AUC0-t and AUC0-INF) (in words) [2, 3]: substantially unchanged | effect of food on Cmax (in words) [2, 3]: decreases | AUC0-INF, % Ratio of geometric means [2, 4]: 96.8% | AUC0-t, % Ratio of geometric means [2, 4]: 96.1% | Cmax, % Ratio of geometric means [2, 4]: 83.8% | Tmax, % Ratio [2, 4]: 137.5% | T½, % Ratio [2, 4]: 100% | kelm, % Ratio [2, 4]: 98.7% | half-life ([2]; human, oral, carisoprodol in plasma, non-fasted, read-out: T½, least sq. mean (converted)): 1.95 h | AUC(0-inf) [2, 5]: 6510 ng·h/mL | AUC(0-t) [2, 5]: 6380 ng·h/mL | Tmax [2, 5]: 1.63 h | Cmax [2, 5]: 2000 ng/mL | Cmax ([2]; human, oral, carisoprodol in plasma, non-fasted (high fat meal)): 1680 ng/mL | AUC(0-inf) [2, 6]: 6310 ng·h/mL | AUC(0-t) [2, 6]: 6140 ng·h/mL | Tmax [2, 6]: 2.24 h
